What was measured:
[1] = Concentration of dissolved triterpenoid in the aqueous cyclodextrin solution (HPLC-ESI MS); type: physicochemical; conditions: 2-hydroxypropyl-γ-cyclodextrin, 50° C.
Method: (§1) Into the resulting colourless, viscous solution, soluble triterpene derivative (1.50 g) is added at once and the mixture is again vigorously stirred at the temperature of 50° C. […] After the triterpenoid is completely dissolved, the resulting clear solution is cooled to room temperature, filtered with a syringe filter (hydrophilic, pore size 0.22 μm) in order to be sterile and is placed in a refrigerator.
as §1, with “Method B: In a mixture of water (14.0 ml) and propylene glycol (6.0 ml), 2-hydroxypropyl-γ-cyklodextrin (7.00 g) is dissolved at the temperature of 50° C. under vigorous stirring. Into” for “Into”, “derivate (1.00” for “derivative (1.50”, “and” for “and the mixture”
Analytic Determination of the Concentration of Dissolved Triterpenoids in the Application Form and in Plasma Samples
(§2) HPLC-ESI MS technique was used or the determination of the concentration of dissolved triterpenoids. The samples were measured in one analytical batch with calibration solutions and blind control. The sample for the measurement was prepared from 50 μl of aqueous solution containing the inclusion compound by dilution with methanol to the volume of 10 ml. Subsequently, 10 μl of the sample solution after the first dilution is further diluted to 1 ml by the mobile phase. The blind control was obtained from 50 μl of pre-prepared aqueous solution of 2-hydroxypropyl-γ-cyklodextrin by dilution with methanol to 10 ml. Subsequently, 10 μl of the blind control solution after the first dilution is further diluted to 1 ml by methanol. Stock solutions of standards (concentration 0.2 mg/ml) were prepared by weighing 2.00 mg of analyte to 10 ml graduated flask and dissolution in methanol. The calibration samples were then prepared by dilution of the stock solution with mobile phase (0.4 μg/ml resp. 4 μg/ml).
The concentration was determined by comparison with standard and calculated to the original solution containing the inclusion compound.

[2] = Bioavailability and pharmacokinetic profile at oral administration to laboratory mice; type: in vivo, outbred mice CD-1; conditions: intragastric single dose 200 μl, soluble cyclodextrin formulation
Method: Determination of Bioavailability and Pharmacokinetic Profile at Oral Administration of the Compounds to Laboratory Mice
Soluble cyclodextrin formulations of terpenoid compounds, prepared in accordance with the aforementioned methods A or B, were administered without dilution to outbred mice CD-1 intragastrically (200 μl in a single dose) as aqueous solutions by injection syringe equipped with a gastric tube. Insoluble compounds were administered intragastrically as well (200 μl in a single dose), but in the form of aqueous suspensions in 0.5-1% carboxymethyl cellulose. In time intervals 2, 4, 6, 8, 12 and 24 h, blood was taken from the mice, the blood was centrifuged and the obtained plasma was subsequently analysed by HPLC-ESI MS technique.
as §2
The analysis was carried out at ODS Hypersil 125×2.1 mm, 5 um, SN 0745415X, Thermo EC column, ODS 4.0×3.0 mm precolumn, Phenomenex, mobile phase A—100 mmol/L aqueous solution of ammonium formate, pH is adjusted to 5 by formic acid, B—100 mmol/L methanolic solution of ammonium formate, column temperature: 25° C., linear gradient or isocratic elution, injected volume 30 μl. The concentration was determined by comparison with standard and calculated to the original solution containing the inclusion compound.

[3] = solution method B: water, propylene glycol
[4] = solution method A: water, saturated sodium hydrogencarbonate solution, ethanol

SMILES | Conc. of dissolved substance [1, 3] | Conc. of dissolved substance [1, 4] | oral availability [2]
C=C(C)[C@@H]1CC[C@]2(C(=O)OCC)CC[C@]3(C)[C@H](CC[C@@H]4[C@@]5(C)CC[C@H](O)C(C)(C)[C@@H]5CC[C@]43C)[C@@H]12 [2a, Ethyl-betulinate] | n (n = concentration lower than the detection threshold, i.e. 1 ng/ml) |  | 
C=C(C)C1CCC2(COC(=O)CCC(=O)O)CCC3(C)C(CCC4C5(C)CCC(OC(=O)CCC(=O)O)C(C)(C)C5CCC43C)C12 (stereo not shown) [1a, betulin dihemisuccinate] |  | 54000 µg/mL | 
CC1(C)CCC23CCC4(C)C(CCC5C6(C)CC(NC(=O)CCC(=O)O)C(O)C(C)(C)C6CCC54C)C2C1OC3 (stereo not shown) [8a] |  | 37000 µg/mL | prove oral availability
COC(=O)C12CCC3(C)C(CCC4C5(C)CCC(O)C(C)(C)C5CCC43C)C1=C(C(C)C)C(=O)C2 (stereo not shown) [4d] | n (n = concentration lower than the detection threshold, i.e. 1 ng/ml) |  | 
CC1(C)C(OC2OC(CO)C(O)C(O)C2O)CCC2(C)C1CCC1(C)C2CCC2C(=O)C(COC3OC(CO)C(O)C(O)C3O)(C(=O)O)CCC21C (stereo not shown) [7f] | 79000 µg/mL | 72000 µg/mL | 
C=C(C)[C@@H]1CC[C@]2(C(=O)O)CC[C@]3(C)[C@H](CC[C@@H]4[C@@]5(C)CC[C@H](OC(=O)CCC(=O)O)C(C)(C)[C@@H]5CC[C@]43C)[C@@H]12 [2e] |  | 51000 µg/mL | 
COC(=O)[C@@]12CC[C@]3(C)[C@H](CC[C@@H]4[C@@]5(C)CC[C@H](O[C@@H]6C[C@@H](OC(C)=O)[C@H](OC(C)=O)[C@@H](COC(C)=O)O6)C(C)(C)[C@@H]5CC[C@]43C)C1=C(C(C)C)C(=O)C2 [4l] | 61000 µg/mL |  | 
C=C(C)[C@@H]1CC[C@]2(C(=O)OCC)CC[C@]3(C)[C@H](CC[C@@H]4[C@@]5(C)CC[C@H](OC(=O)c6ccccc6C(=O)O)C(C)(C)[C@@H]5CC[C@]43C)[C@@H]12 [2c] |  | 41000 µg/mL | 
C=C(C)[C@@H]1CC[C@]2(C(=O)OCC)CC[C@]3(C)[C@H](CC[C@@H]4[C@@]5(C)CC[C@H](O[C@@H]6O[C@H](CO)[C@@H](O)[C@H](O)[C@H]6O)C(C)(C)[C@@H]5CC[C@]43C)[C@@H]12 [2d] | 43000 µg/mL |  | 
CCOC(=O)[C@@]12CC[C@]3(C)[C@H](CC[C@@H]4[C@@]5(C)CC[C@H](OC(=O)CC(C)(C)CC(=O)O)C(C)(C)[C@@H]5CC[C@]43C)C1=C(C(C)C)C(=O)C2 [4q] |  | 58000 µg/mL | 
CC(=O)O[C@H]1CC[C@]2(C)[C@H]3CC[C@@H]4C5=C(C(C)C)C(=O)C[C@]5(C(=O)OCC[N+](C)(C)C)CC[C@@]4(C)[C@]3(C)CC[C@H]2C1(C)C.[Br-] [4b] | 47000 µg/mL |  | 
COC(=O)[C@@]12CC[C@]3(C)[C@H](CC[C@@H]4[C@@]5(C)CC[C@H](OC(=O)CC(C)(C)C(=O)O)C(C)(C)[C@@H]5CC[C@]43C)C1=C(C(C)C)C(=O)C2 [4s] |  | 44000 µg/mL | 
CCOC(=O)[C@@]12CC[C@]3(C)[C@H](CC[C@@H]4[C@@]5(C)CC[C@H](OC(=O)CC(C)(C)C(=O)O)C(C)(C)[C@@H]5CC[C@]43C)C1=C(C(C)C)C(=O)C2 [4r] |  | 44000 µg/mL | 
CC(C)C1=C2[C@H]3CC[C@@H]4[C@@]5(C)CC[C@H](OC(=O)CC(C)(C)CC(=O)O)C(C)(C)[C@@H]5CC[C@@]4(C)[C@]3(C)CC[C@@]2(C(=O)O)CC1=O [4u] |  | 44000 µg/mL | 
CCOC(=O)[C@@]12CC[C@]3(C)[C@H](CC[C@@H]4[C@@]5(C)CC[C@H](OC(=O)COCC(=O)O)C(C)(C)[C@@H]5CC[C@]43C)C1=C(C(C)C)C(=O)C2 [4x] |  | 44000 µg/mL | 
COC(=O)[C@@]12CC[C@]3(C)[C@H](CC[C@@H]4[C@@]5(C)CC[C@H](OC(=O)CCC(=O)O)C(C)(C)[C@@H]5CC[C@]43C)C1=C(C(C)C)C(=O)C2=O [5a] |  | 50000 µg/mL | prove oral availability

SMILES | Conc. of dissolved substance [1, 3] | Conc. of dissolved substance [1, 4] | oral availability [2]
C=C(C=O)[C@@H]1CC[C@]2(C(=O)OCC)CC[C@]3(C)[C@H](CC[C@@H]4[C@@]5(C)CC[C@H](O)C(C)(C)[C@@H]5CC[C@]43C)[C@@H]12 [3a] | n (n = concentration lower than the detection threshold, i.e. 1 ng/ml) |  | 
C=C(C)[C@@H]1CC[C@]2(C(=O)OC)CC[C@]3(C)[C@H](CC[C@@H]4[C@@]5(C)CC[C@H](OC(=O)CCCC(=O)O)C(C)(C)[C@@H]5CC[C@]43C)[C@@H]12 [2i] |  | 51000 µg/mL | prove oral availability
CCOC(=O)[C@@]12CC[C@]3(C)[C@H](CC[C@@H]4[C@@]5(C)CC[C@H](OC(=O)CCC(=O)O)C(C)(C)[C@@H]5CC[C@]43C)C1=C(C(C)C)C(=O)C2 [4e] |  | 53000 µg/mL | 
C=C(C)[C@@H]1CC[C@]2(CO[C@@H]3O[C@H](CO)[C@@H](O)[C@H](O)[C@H]3O)CC[C@]3(C)[C@H](CC[C@@H]4[C@@]5(C)CC[C@H](O[C@@H]6O[C@H](CO)[C@@H](O)[C@H](O)[C@H]6O)C(C)(C)[C@@H]5CC[C@]43C)[C@@H]12 [1c, betulin diglucoside] | 55000 µg/mL |  | 
C=C(C)[C@@H]1CC[C@]2(C(=O)O[C@@H]3O[C@H](CO)[C@@H](O)[C@H](O)[C@H]3O)CC[C@]3(C)[C@H](CC[C@@H]4[C@@]5(C)CC[C@H](O)C(C)(C)[C@@H]5CC[C@]43C)[C@@H]12 [2j] | 70000 µg/mL | 59000 µg/mL | 
C=C(C=O)[C@@H]1CC[C@]2(C(=O)OCC)CC[C@]3(C)[C@H](CC[C@@H]4[C@@]5(C)CC[C@H](OC(=O)c6ccccc6C(=O)O)C(C)(C)[C@@H]5CC[C@]43C)[C@@H]12 [hemiphtalate 3b] |  | 40000 µg/mL | 
C=C(C)[C@@H]1CC[C@]2(C(=O)OC)CC[C@]3(C)[C@H](CC[C@@H]4[C@@]5(C)CC[C@H](O)C(C)(C)[C@@H]5CC[C@]43C)[C@@H]12 [2h, Methyl betulinate] | n (n = concentration lower than the detection threshold, i.e. 1 ng/ml) |  | 
CC1(C)C(OC(=O)CCC(=O)O)CCC2(C)C1CCC1(C)C2CCC2C(=O)C(COC(=O)CCC(=O)O)(C(=O)O)CCC21C (stereo not shown) [7c] |  | 73000 µg/mL | 
C=C(C)[C@@H]1CC[C@]2(CO)CC[C@]3(C)[C@H](CC[C@@H]4[C@@]5(C)CC[C@H](O)C(C)(C)[C@@H]5CC[C@]43C)[C@@H]12 [Betulin, reference compound] | n (n = concentration lower than the detection threshold, i.e. 1 ng/ml) |  | 
C=C(C)[C@@H]1CC[C@]2(COC(=O)c3ccccc3C(=O)O)CC[C@]3(C)[C@H](CC[C@@H]4[C@@]5(C)CC[C@H](OC(=O)c6ccccc6C(=O)O)C(C)(C)[C@@H]5CC[C@]43C)[C@@H]12 [1b, betulin dihemiphtalate] |  | 39000 µg/mL | 
CCOC(=O)[C@@]12CC[C@]3(C)[C@H](CC[C@@H]4[C@@]5(C)CC[C@H](O[C@@H]6C[C@@H](OC(C)=O)[C@@H](OC(C)=O)[C@@H](COC(C)=O)O6)C(C)(C)[C@@H]5CC[C@]43C)C1=C(C(C)C)C(=O)C2 [4j] | 60000 µg/mL |  | 
CC(=O)O[C@H]1CC[C@]2(C)[C@H]3CC[C@@H]4C5=C(C(C)C)C(=O)C[C@]5(C(=O)OCC(=O)O)CC[C@@]4(C)[C@]3(C)CC[C@H]2C1(C)C [4a] |  | 59000 µg/mL | 
CCOC(=O)[C@@]12CC[C@]3(C)[C@H](CC[C@@H]4[C@@]5(C)CC[C@H](OC(=O)c6ccccc6C(=O)O)C(C)(C)[C@@H]5CC[C@]43C)C1=C(C(C)C)C(=O)C2 [4f] |  | 28000 µg/mL | 
C=C(C)[C@@H]1CC[C@]2(C(=O)O)CC[C@]3(C)[C@H](CC[C@@H]4[C@@]5(C)CC[C@H](O)C(C)(C)[C@@H]5CC[C@]43C)[C@@H]12 [compound 2, Betulinic acid, reference compound] |  | 38000 µg/mL | 
CC(=O)O[C@H]1CC[C@]2(C)[C@H]3CC[C@@H]4C5=C(C(C)C)C(=O)C[C@]5(C(=O)OCC[n+]5ccccc5)CC[C@@]4(C)[C@]3(C)CC[C@H]2C1(C)C.[Br-] [4c] | 33000 µg/mL |  | 
C=C(C)C1CCC2(C(=O)OC)CCC3(C)C(CCC4C5(C)CCC(OC(=O)C6CC=CCC6C(=O)O)C(C)(C)C5CCC43C)C12 (mixture of isomers) [2m] |  | 43000 µg/mL | 
